The record followed here is ChEMBL document CHEMBL4400519, “Indazolylketones as new multitarget cannabinoid drugs” (Eur J Med Chem, 2019).

Active and inactive are the calls of the source. The rule behind the calls is not given here. Where only a bound is given, the exact number is not on record here.

In data set [1] the target is T1, Cannabinoid receptor (Mus musculus) (UniProt P47746+P47936). As to the kind of experiment: Agonist activity at cannabinoid receptor in ICR mouse vas deferens assessed as inhibition of electrically induced contractions at 9 x 10^-7 M after 10 mins relative to control. The data set is classed as protein assay.
The target in data set [2] is T1, Cannabinoid receptor (Mus musculus). Briefly: Agonist activity at cannabinoid receptor in ICR mouse vas deferens assessed as inhibition of electrically induced contractions at 9 x 10^-7 M after 10 mins in presence of CB1 antagonist AM251 relative to control. The data set is classed as protein assay.
For data set [3], the species on record is Homo sapiens. As to the kind of experiment: Antiproliferative activity against Alzheimer's patient derived lymphoblast cells at 5 uM after 72 hrs by MTT assay. It counts as functional. In general terms: Tetrazolium assays rely on reduction of a dye to a coloured formazan, in cell work by metabolically active cells.
Data set [4] concerns the target Beta-secretase 1 (Homo sapiens) (UniProt P56817). Briefly: Inhibition of human BACE1 at 10 uM incubated for 60 mins using rhodamine-EVNLDAEFK-quencher substrate by FRET assay.
Data set [5] can be described thus: Antiproliferative activity against normal human derived lymphoblast cells at 5 uM after 72 hrs by MTT assay.
The target of data set [6] is T1, Cannabinoid receptor (Mus musculus). As to the kind of experiment: Agonist activity at cannabinoid receptor in ICR mouse vas deferens assessed as inhibition of electrically induced contractions at 8.1 x 10^-6 M after 10 mins relative to control. It counts as protein assay.
In the next data set the test system is SH-SY5Y. Briefly: Toxicity in human SH-SY5Y cells at 20 uM after 24 hrs by MTT assay. The data set is classed as cell-based.
Data set [7] has as its target T1, Cannabinoid receptor (Mus musculus). As to the kind of experiment: Agonist activity at cannabinoid receptor in ICR mouse vas deferens assessed as inhibition of electrically induced contractions at 1.82 x 10^-5 M after 10 mins in presence of CB2 antagonist AM630 relative to control. The data set is classed as protein assay.
The target is the same in data set [8]. As to the kind of experiment: Agonist activity at cannabinoid receptor in ICR mouse vas deferens assessed as inhibition of electrically induced contractions at 8.1 x 10^-6 M after 10 mins in presence of CB1 antagonist AM251 relative to control. The data set is classed as protein assay.
For data set [9] the target is unchanged. As to the kind of experiment: Agonist activity at cannabinoid receptor in ICR mouse vas deferens assessed as inhibition of electrically induced contractions at 3 x 10^-7 M after 10 mins relative to control. The data set is classed as protein assay.
Data set [10] has the same target. Briefly: Agonist activity at cannabinoid receptor in ICR mouse vas deferens assessed as inhibition of electrically induced contractions at 10^-7 M after 10 mins in presence of CB2 antagonist AM630 relative to control. It counts as protein assay.
Data set [11] shares this target. Briefly: Agonist activity at cannabinoid receptor in ICR mouse vas deferens assessed as inhibition of electrically induced contractions at 3 x 10^-7 M after 10 mins in presence of CB1 antagonist AM251 relative to control. It counts as protein assay.
The target is the same in data set [12]. Briefly: Agonist activity at cannabinoid receptor in ICR mouse vas deferens assessed as inhibition of electrically induced contractions at 9 x 10^-7 M after 10 mins in presence of CB2 antagonist AM630 relative to control. It counts as protein assay.
Data set [13] in a line: Antioxidant activity assessed as trolox equivalent of APPH-induced radical scavenging activity by ORAC-FL assay. It counts as functional.
The target of data set [14] is T1, Cannabinoid receptor (Mus musculus). Briefly: Agonist activity at cannabinoid receptor in ICR mouse vas deferens assessed as inhibition of electrically induced contractions at 2.7 x 10^-6 M after 10 mins in presence of CB1 antagonist AM251 relative to control. It counts as protein assay.
Data set [15] deals with T2, Acetylcholinesterase (Homo sapiens, UniProt P22303). Briefly: Inhibition of human erythrocyte AChE using acetylthiocholine as substrate by Ellman's assay.
Data set [16] addresses T1, Cannabinoid receptor (Mus musculus). As to the kind of experiment: Agonist activity at cannabinoid receptor in ICR mouse vas deferens assessed as inhibition of electrically induced contractions at 1.82 x 10^-5 M after 10 mins in presence of CB1 antagonist AM251 relative to control. The data set is classed as protein assay.
In data set [17] the target is T3, Cholinesterase (Homo sapiens, UniProt P06276). Briefly: Inhibition of human serum BChE using butyrylthiocholine as substrate by Ellman's assay. On the technique in general: DTNB colorimetry detects thiols as they appear.
Data set [18] has as its target T1, Cannabinoid receptor (Mus musculus). As to the kind of experiment: Agonist activity at cannabinoid receptor in ICR mouse vas deferens assessed as inhibition of electrically induced contractions at 10^-7 M after 10 mins relative to control. The data set is classed as protein assay.
Data set [19] has the same target. Briefly: Agonist activity at cannabinoid receptor in ICR mouse vas deferens assessed as inhibition of electrically induced contractions at 1.82 x 10^-5 M after 10 mins relative to control. It counts as protein assay.
For data set [20] the target is unchanged. As to the kind of experiment: Agonist activity at cannabinoid receptor in ICR mouse vas deferens assessed as inhibition of electrically induced contractions at 8.1 x 10^-6 M after 10 mins in presence of CB2 antagonist AM630 relative to control. It counts as protein assay.
Data set [21] shares this target. Briefly: Agonist activity at cannabinoid receptor in ICR mouse vas deferens assessed as inhibition of electrically induced contractions at 10^-7 M after 10 mins in presence of CB1 antagonist AM251 relative to control. The data set is classed as protein assay.
The target is the same in data set [22]. Briefly: Agonist activity at cannabinoid receptor in ICR mouse vas deferens assessed as inhibition of electrically induced contractions at 2.7 x 10^-6 M after 10 mins in presence of CB2 antagonist AM630 relative to control. It counts as protein assay.
For data set [23] the target is unchanged. Briefly: Agonist activity at cannabinoid receptor in ICR mouse vas deferens assessed as inhibition of electrically induced contractions at 2.7 x 10^-6 M after 10 mins relative to control. The data set is classed as protein assay.
Data set [24] has the same target. Briefly: Agonist activity at cannabinoid receptor in ICR mouse vas deferens assessed as inhibition of electrically induced contractions at 3 x 10^-7 M after 10 mins in presence of CB2 antagonist AM630 relative to control. It counts as protein assay.
For data set [25], the species on record is Homo sapiens. As to the kind of experiment: Antiproliferative activity against Alzheimer's patient derived lymphoblast cells at 5 uM in presence of CB2 antagonist AM630 after 72 hrs by MTT assay. The data set is classed as functional.
The target in data set [26] is T3, Cholinesterase. Briefly: Competitive inhibition of human serum BChE using butyrylthiocholine as substrate by Lineweaver-Burk plot analysis.
For data set [27], the target named is T2, Acetylcholinesterase. As to the kind of experiment: Inhibition of human erythrocyte AChE at 10 uM using acetylthiocholine as substrate by Ellman's assay.
The target of data set [28] is T3, Cholinesterase. Briefly: Inhibition of human serum BChE at 10 uM using butyrylthiocholine as substrate by Ellman's assay.

T2 sequence (P22303 whole entry): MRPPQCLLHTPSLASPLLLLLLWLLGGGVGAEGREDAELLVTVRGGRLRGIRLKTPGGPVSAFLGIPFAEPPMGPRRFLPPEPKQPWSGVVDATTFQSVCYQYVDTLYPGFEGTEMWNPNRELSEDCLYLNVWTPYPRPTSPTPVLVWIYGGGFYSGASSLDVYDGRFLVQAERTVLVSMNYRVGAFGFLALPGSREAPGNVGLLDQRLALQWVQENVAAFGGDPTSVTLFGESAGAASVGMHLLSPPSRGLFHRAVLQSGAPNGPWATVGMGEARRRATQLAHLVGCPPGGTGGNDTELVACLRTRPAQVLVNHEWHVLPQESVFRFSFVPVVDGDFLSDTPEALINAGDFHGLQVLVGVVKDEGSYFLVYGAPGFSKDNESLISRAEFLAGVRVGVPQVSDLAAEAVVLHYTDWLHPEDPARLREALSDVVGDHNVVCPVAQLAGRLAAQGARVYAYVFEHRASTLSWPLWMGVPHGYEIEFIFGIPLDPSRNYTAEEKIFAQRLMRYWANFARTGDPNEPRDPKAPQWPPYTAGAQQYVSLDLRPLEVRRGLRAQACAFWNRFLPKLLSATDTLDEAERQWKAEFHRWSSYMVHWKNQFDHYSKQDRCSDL
T3 sequence (P06276 whole entry): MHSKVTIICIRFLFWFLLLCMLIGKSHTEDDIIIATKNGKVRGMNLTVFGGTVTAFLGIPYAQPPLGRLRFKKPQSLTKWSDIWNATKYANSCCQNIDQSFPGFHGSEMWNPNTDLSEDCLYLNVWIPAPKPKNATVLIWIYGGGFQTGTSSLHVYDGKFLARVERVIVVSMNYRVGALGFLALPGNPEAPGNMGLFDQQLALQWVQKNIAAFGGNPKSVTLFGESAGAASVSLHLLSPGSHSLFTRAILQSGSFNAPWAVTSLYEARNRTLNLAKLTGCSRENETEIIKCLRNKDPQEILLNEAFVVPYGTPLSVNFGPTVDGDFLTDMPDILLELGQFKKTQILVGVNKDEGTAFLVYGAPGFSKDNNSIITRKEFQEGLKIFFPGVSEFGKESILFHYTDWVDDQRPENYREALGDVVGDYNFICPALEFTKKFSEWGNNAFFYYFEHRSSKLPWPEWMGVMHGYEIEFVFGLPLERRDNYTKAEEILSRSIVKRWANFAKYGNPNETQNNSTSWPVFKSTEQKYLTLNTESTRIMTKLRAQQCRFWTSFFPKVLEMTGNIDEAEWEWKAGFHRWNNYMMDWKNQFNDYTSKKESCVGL
T1 sequence (P47746 whole entry, looked up): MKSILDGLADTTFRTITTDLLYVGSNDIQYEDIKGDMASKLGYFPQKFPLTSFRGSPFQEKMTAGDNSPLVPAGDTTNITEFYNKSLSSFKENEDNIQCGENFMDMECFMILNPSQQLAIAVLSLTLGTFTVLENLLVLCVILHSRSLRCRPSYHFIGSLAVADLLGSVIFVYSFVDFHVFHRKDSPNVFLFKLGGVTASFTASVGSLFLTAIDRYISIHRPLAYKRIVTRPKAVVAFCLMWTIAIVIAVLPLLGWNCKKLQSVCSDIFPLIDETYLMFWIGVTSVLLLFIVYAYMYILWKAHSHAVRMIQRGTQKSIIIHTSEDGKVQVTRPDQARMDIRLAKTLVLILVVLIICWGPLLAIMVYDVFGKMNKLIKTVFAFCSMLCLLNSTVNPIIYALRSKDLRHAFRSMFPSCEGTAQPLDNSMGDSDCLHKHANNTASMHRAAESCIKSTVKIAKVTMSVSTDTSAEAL
T1 sequence (P47936 whole entry, looked up): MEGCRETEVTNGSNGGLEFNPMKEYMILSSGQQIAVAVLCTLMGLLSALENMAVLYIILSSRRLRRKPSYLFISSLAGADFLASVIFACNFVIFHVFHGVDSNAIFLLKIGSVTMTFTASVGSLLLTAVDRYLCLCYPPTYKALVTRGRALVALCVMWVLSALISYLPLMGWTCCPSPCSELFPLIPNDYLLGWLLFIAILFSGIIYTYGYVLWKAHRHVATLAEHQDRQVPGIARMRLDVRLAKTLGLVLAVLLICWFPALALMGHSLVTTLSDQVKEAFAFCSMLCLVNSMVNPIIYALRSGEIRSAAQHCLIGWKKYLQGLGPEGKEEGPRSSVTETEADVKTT
Chain of Beta-secretase 1 (Homo sapiens) (P56817 whole entry): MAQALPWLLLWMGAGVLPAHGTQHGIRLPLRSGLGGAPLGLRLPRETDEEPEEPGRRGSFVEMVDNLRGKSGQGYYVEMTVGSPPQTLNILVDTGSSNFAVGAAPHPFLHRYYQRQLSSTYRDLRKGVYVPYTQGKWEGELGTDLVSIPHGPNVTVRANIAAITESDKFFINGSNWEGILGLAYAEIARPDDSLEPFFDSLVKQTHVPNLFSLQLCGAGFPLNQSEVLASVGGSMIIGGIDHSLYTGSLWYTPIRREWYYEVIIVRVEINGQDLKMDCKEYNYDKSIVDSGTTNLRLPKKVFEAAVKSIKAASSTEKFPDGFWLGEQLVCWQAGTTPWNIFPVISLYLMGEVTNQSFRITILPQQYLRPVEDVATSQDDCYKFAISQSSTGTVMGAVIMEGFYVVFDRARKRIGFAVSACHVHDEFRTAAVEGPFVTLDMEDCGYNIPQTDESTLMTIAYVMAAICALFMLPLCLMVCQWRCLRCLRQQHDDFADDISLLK

As a reminder, the inhibition is the drop in the measured response relative to a control, in per cent. As a reminder, the IC50 is the concentration that gives 50% inhibition. Read a high IC50 as weaker potency in that assay. For the molecule `O=C(c1cccc(Cl)c1Cl)n1nc(OCCCN2CCCCC2)c2ccccc21`, the inhibition in data set [1] is 14.3%; in data set [2], 8.7%; in data set [4], 45.1%; in data set [6] it was 89.3%; in data set [7] it was 85.5%; in data set [8] it was 65.3%. Moreover, the inhibition is 6.2% in [9]; -3% in data set [10]; 2% in data set [11]; 10.4% in data set [12]; 15.2% in data set [14]; 89.8% in data set [16]. Besides, the inhibition in data set [18] is 1.4%; in data set [19] it was 96.6%; in data set [20], 62.7%; in data set [21], -0.7%; in [22], 18.2%; in data set [23] it was 27.4%. Besides, the inhibition in data set [24] amounted to 0%. Also, the result in the data set listed under Homo sapiens [3] was Active. For the same molecule, the Activity result is given as “Non-Toxic” in data set [5] and “Toxic” with SH-SY5Y. Also, the outcome (in data set [13]; in the data set listed under Homo sapiens [25]) was inactive. In addition, the IC50 at Acetylcholinesterase [15] is 17 µM; at Cholinesterase [17], 0.08 µM.
As for `O=C(c1ccc2ccccc2c1)n1nc(OCCN2CCCCC2)c2ccccc21`, the inhibition in [1] was -3.5%; in data set [4] it was 50%; in data set [6] it was 4%; in data set [9], -1.2%; at Acetylcholinesterase [27] it was 43%; in [18] it was 0.3%. The inhibition was 18.2% in data set [19] and -2.8% in [23]. Besides, the inhibition result on Cholinesterase [26] was “Active”. Further, in data set [13], the outcome was inactive. The IC50 is greater than 10 µM against Acetylcholinesterase [15] and 4 µM on Cholinesterase [17].
Consider `O=C(c1cccc(Cl)c1F)n1nc(OCCCN2CCCCC2)c2ccccc21`, for which the inhibition in data set [1] was 18.7%; in data set [2], 4.3%; in [4], 34%; in data set [6], 54.7%; in data set [7] it was 58.3%; in [8] it was 54.9%. Moreover, the inhibition in data set [9] is 13.9%; in data set [10], -1.5%; in data set [11], -5.3%; in [12], -3.8%; in [14] it was 12.9%; against Acetylcholinesterase [27] it was 48%. The inhibition in data set [16] was 76.1%; in data set [18] it was 9.6%; in data set [19], 80.5%; in data set [20], 12.9%; in [21], -7.1%; in data set [22], -2.8%. The inhibition in [23] stood at 24.9%; in data set [24] it was 1.7%. For the same molecule, the outcome in the data set filed under Homo sapiens [3] was Active. The Activity entry is “Non-Toxic” in [5] and “Toxic” in the data set with SH-SY5Y. Also, the outcome (in data set [13]; in the data set filed under Homo sapiens [25]) was inactive. In addition, the IC50 against Acetylcholinesterase [15] is greater than 10 µM; on Cholinesterase [17] it was 0.8 µM.
`O=C(c1ccccc1OCc1ccccc1)n1nc(OCCCN2CCCCC2)c2ccccc21`: the inhibition in data set [1] is 6.4%; in data set [2], -4.5%; in data set [4], 38.4%; in data set [6], 74.4%; in [7] it was 77.5%; in data set [8], 26.4%. Besides, the inhibition in data set [10] was -3.1%; in [11], -6.8%; in [12], -0.5%; in data set [14], -1%; against Acetylcholinesterase [27] it was 31%; in data set [16] it was 74.8%. For the same molecule, the inhibition in [19] is 94.7%; in data set [20] it was 29.7%; in data set [21], -6.8%; in [22], -3%; in [23], 31.4%; in data set [24], 1.1%. In addition, the outcome in the data set filed under Homo sapiens [3] was Active. The figures for the Activity entry (in [5]; in the data set on SH-SY5Y) were “Non-Toxic” and “Toxic”, respectively. The outcome (in [13]; in the data set filed under Homo sapiens [25]) was inactive. The concentration for half-maximal inhibition (IC50) was greater than 10 µM against Acetylcholinesterase [15] and 0.0025 µM against Cholinesterase [17].
On to `O=C(c1ccc2ccccc2c1)n1nc(OCCCN2CCCCC2)c2ccccc21`, for which the inhibition in [1] is 0.1%; in data set [4], 38%; in data set [6] it was 17.2%; in [7], 49.1%; in data set [8], 0.7%; in data set [9], -1%. The inhibition was 33% on Acetylcholinesterase [27]; 49.5% in data set [16]; -2.1% in [18]; 41.9% in [19]; 20.9% in [20]; -9.7% in data set [22]. Further, the inhibition in [23] worked out at 1.2%. For the same molecule, the inhibition result at Cholinesterase [26] is “Active”. In addition, in data set [13], the result was inactive. The figures for the IC50 on Acetylcholinesterase [15] and against Cholinesterase [17] were greater than 10 µM and 2.1 µM, respectively.
Turning to `O=C(Cc1ccc(Cl)cc1)n1nc(OCCCN2CCCCC2)c2ccccc21`, the inhibition in [1] was 0.4%; against Cholinesterase [28], 46%; in [2], -2.2%; in data set [4], 50%; in data set [6] it was 67.4%; in [7] it was 96.1%. The inhibition in data set [8] is 61.8%; in data set [9], -4.8%; in [10], -7.8%; in data set [11], -6.2%; in data set [12], 2.4%; in data set [14], 12.4%. The inhibition is 43% against Acetylcholinesterase [27]; 83.5% in data set [16]; -4.5% in data set [18]; 94.2% in data set [19]; 86.6% in data set [20]; -5.5% in data set [21]. Further, the values for the inhibition in data set [22], in data set [23] and in [24] were 19.7%, 7.3% and -3.2%, respectively. The outcome in data set [13] was inactive. Also, the IC50 on Acetylcholinesterase [15] and against Cholinesterase [17] was greater than 10 µM in each case.
